In paper PMC5381078, “Carboxylate derivatives of tributyltin (IV) complexes as anticancer and antileishmanial agents” (DARU Journal of Pharmaceutical Sciences, 2017):
Converted amounts (≈) assume the structure as drawn. Numbered stars: 1 amine (or outer) side, 2 acyl side, 3 side chain; on linkers, the order of the positions; unused ones are H or OH. Bridge positions count the residues as written; N and C are the ends. Square brackets hold non-standard residues; d marks the D form. Peptide text beside a SMILES is read from it. X1 = CC(C)CCCCCCCCC[C@H](CC(=O)[*:1])O[*:2]

Experiments:
[1] = tested on: HepG2 cell line; experiment: Cytotoxicity against HepG2 cell line (SRB assay); type: cell-based, human; details: for HepG2 % growth inhibition: 20 μg/mL
Procedure: Cytotoxicity was further evaluated against HepG2 cell line by sulforhodamine B (SRB) colorimetric assay. Dulbecco's Modified Eagle Medium (DMEM) supplemented with 10% FBS, 100 μg/mL streptomycin sulfate, 100 IU/mL penicillin G sodium and 0.25 μg/mL amphotericin B was used to culture HepG2 cells in CO2 (5%) incubator (Panasonic, Japan MCO-18 AC-PE) at 37 °C. An aliquot of 20 μL (1% DMSO in PBS) of samples was added to 180 μL of cell culture at an assay density of 1x10^5 cells/mL in 96-well plate. The plate was incubated at 37 °C for 72 h in CO2 incubator. Final concentration of compounds/standard was 20 μg/mL. Doxorubicin and 1% v/v DMSO in PBS ere used as positive and negative controls respectively. An equivalent number of cells in twelve wells of 96-well plate were incubated for 1 h at 37 °C and labeled as day zero control. Later, cells were fixed by adding 50 μL of cold 20% w/v TCA for 1 h at 4 °C. These were washed with tap water, air dried and stained with 50 μL of 0.057% w/v SRB in 1% v/v acetic acid for 30 min at room temperature. Cells were again washed with 1% v/v acetic acid, dried overnight and 200 μL of 10 mM Tris base (pH 10) was used to solubilize the bound dye for 1 h. Absorbance was measured at 515 nm using a microplate reader. Percentage of growth inhibition was calculated as: % inhibition = 100 – [(As – Ao) / (An – Ao) × 100], where, Ao, As and An are absorbance of day zero control, samples and negative control respectively. IC50 values were determined using 3-fold dilutions of the samples.

[2] = tested on: isolated lymphocytes; experiment: Cytotoxicity against isolated lymphocytes (MTT assay); type: cell-based, human; details: 24 h
Procedure: Lymphocytes were isolated using previously described protocol with some modifications. Informed consent was obtained from volunteers and procedure was conducted according to international ethical guidelines after gaining approval from the ethical committee of the Quaid-i-Azam University. A volume of 3 mL of blood was obtained from a healthy donor by venipuncture and diluted (1:1) with PBS. It was layered over 2 mL Histopaque-1077 and centrifuged at 800 × g for 20 min. The buffy coat was aspirated into 5 mL of PBS and centrifuged at […] for 4 min to pellet the lymphocytes. The pellet was suspended in 1 mL of RPMI-1640 and cell density was adjusted to get 1 × 10^5 cells/mL. For cytotoxicity determination, 20 μL of samples (20 μg/mL) or vincristine or 1% DMSO in PBS and 180 μL of lymphocyte suspension were incubated in 96-well plate at 37 °C for 24 h in humidified 5% carbon dioxide incubator (Panasonic, Japan MCO-18 AC-PE). Phytohaemagglutinin (PHA) was added in medium to stimulate lymphocyte growth. Afterwards, MTT assay was done as described above. IC50 values were determined using 3-fold dilutions of the samples.

[3] = tested on: Streptomyces 85E; experiment: Protein kinase inhibition assay (Streptomyces disc assay); type: cell-based; details: for MIC for PK inhibition: minimum inhibitory concentration
Procedure: Protein kinase inhibitory activity of the tributyltin (IV) compounds was measured against Streptomyces 85E strain using previously described protocol. Culture of Streptomyces 85E was refreshed in tryptic soy broth and 100 μL of this was swabbed on sterile ISP4 medium under aseptic conditions. […] Diameter (mm) of zone of inhibition (ZOI) around all samples and controls was measured as clear zone (CZ) and bald zone (BZ). […] BZ is indicative of PK inhibition.

[4] = tested on: Leishmania tropica kwh 23 promastigotes; experiment: Photosensitizing effect against leishmania; type: cell-based; details: for Photosensitizing effect % growth inhibition, Sunlight with IR filter: 15 min; for Photosensitizing effect % growth inhibition, Sunlight: 15 min sunlight
Procedure: Photosensitizing effect of tributyltin (IV) compounds was determined in three parallel groups. Samples and controls were exposed for 15 min to sunlight (168 W/m^2 of sun intensity) or sunlight with IR filter or dark conditions. The relative intensity of sunlight was measured by a CCD spectrometer (Ocean Optics, model HR4000). Later, plates were incubated at 25 °C for 72 h and cell viability was determined by MTT assay as given above. In this assay, samples were tested at concentrations showing less than 55% inhibition in primary antileishmanial assay to exclude false positive.

[5] = tested on: promastigotes of Leishmania tropica kwh 23; experiment: Antileishmanial activity (MTT assay); type: cell-based; details: 72 h; for Antileishmanial % growth inhibition (mortality, lethality): 20 μg/mL; for Antileishmanial LC50: MTT
Procedure: Antileishmanial activity against the promastigotes of Leishmania tropica kwh 23 was evaluated by a quantitative colorimetric assay using 3-(4,5-dimethylthiazol-2-yl)-2, 5-diphenyl tetrazolium bromide (MTT) with minor modifications. […] […] Negative control wells contained 1% DMSO in PBS. All samples were run in triplicate. Afterwards, plates were incubated for 4 h at 24 °C with 20 μL of MTT (4 mg/mL in distilled water) to determine the cell viability. Supernatant from each well was carefully removed leaving behind formazan crystals. Colored formazan crystals were dissolved in 100 μL of DMSO by setting those aside for 1 h to ensure complete dissolution. Cell viability was estimated by measuring absorbance at 540 nm using microplate reader and percentage growth inhibition was calculated.

[6] = tested on: THP-1 cell line; experiment: Cytotoxicity against THP-1 cell line (MTT assay); type: cell-based, human; details: 72 h; for THP-1 % growth inhibition: 20 μg/mL
Procedure: Cytotoxicity of tributyltin (IV) compounds against THP-1 cell line was determined by 3-(4,5-dimethylthiazol-2-yl)-2,5-diphenyl tetrazolium bromide (MTT) assay. THP-1 cells were cultured in complete growth medium comprising RPMI-1640 (pH 7.4) supplemented with 2.2 g/L NaHCO3 and 10% v/v heat inactivated fetal bovine serum (HIFBS). An aliquot of 20 μL of samples in 1% DMSO in PBS and 180 μL of THP-1 cells were mixed in 96-well plate. Cells were added at an assay density of 1 × 10^4 cells/mL whereas sample/standard was added to achieve the final concentration of 20 μg/mL. The plate was incubated at 37 °C for 72 h in humidified 5% carbon dioxide incubator (Panasonic, Japan MCO-18 AC-PE). Vincristine and 1% DMSO in PBS were used as positive and negative controls respectively. After incubation, 20 μL of pre-filter sterilized MTT solution (4 mg/mL in distilled water) was added in plates and incubated for 4 h at 37 °C in CO2 incubator. Later, colored formazan crystals were separated by removing supernatant and dissolved in 100 μL of DMSO. Reaction was allowed to stand for 1 h to ensure complete dissolution and absorbance was measured at 540 nm using microplate reader (Biotech USA, Elx 800).

[7] = 6.25 μg/disc, BZ indicative of PK inhibition
[8] = 50 μg/disc, BZ indicative of PK inhibition, (-) shows no ZOI

Compound | HepG2 % growth inhibition ([1]; 72 h) [%] | HepG2 IC50 ([1]; 72 h, 3-fold dilutions) [µg/mL] | Isolated lymphocytes % growth inhibition ([2]; 20 μg/mL) | ZOI BZ (bald zone) [3, 7] [mm] | ZOI CZ (clear zone) ([3]; 50 μg/disc, (-) shows no ZOI) [mm] | MIC for PK inhibition [3] [μg/disc] | Photosensitizing effect % growth inhibition, Control ([4]; 0.092 μg/mL) [%] | Photosensitizing effect % growth inhibition, Dark ([4]; 0.092 μg/mL) [%] | Photosensitizing effect % growth inhibition, Sunlight with IR filter ([4]; 0.092 μg/mL) [%] | Photosensitizing effect % growth inhibition, Sunlight ([4]; 0.092 μg/mL) [%] | Antileishmanial % growth inhibition (mortality, lethality) [5] [%] | Antileishmanial LC50 [5] [µg/mL] | THP-1 % growth inhibition [6] [%] | ZOI CZ (clear zone) ([3]; 6.25 μg/disc, (-) shows no ZOI) [mm] | other results
CCC[CH2][Sn]([CH2]CCC)([CH2]CCC)[O]C(=O)c1ccccc1C(=O)Nc1cccc2ccccc12 [Ch-450, tributylstannyl 2-(naphthalene-1-ylcarbamoyl)benzoate] | 98.5 ± 1.85 | 2.81 ± 0.34 | 11.7 ± 0.05ǂ % | 28 ± 2.5 | 32 ± 1.13 | 0.195 ± 0.001 | 24.5 ± 1.63 | 26.34 ± 0.15 | 20.7 ± 0.43 | 32.12 ± 1.28 | 97.4 ± 1.35 | 0.361 ± 0.017 | – | – | –
CC[C@]1(O)C[C@H]2CN(CCc3c([nH]c4ccccc34)[C@@](C(=O)OC)(c3cc4c(cc3OC)N(C=O)[C@H]3[C@@](O)(C(=O)OC)[C@H](OC(C)=O)[C@]5(CC)C=CCN6CC[C@]43[C@@H]65)C2)C1 [Vincristine, reference compound] | – | – | – | – | – | – | – | – | – | – | – | – | – | – | inhibition at 20 µg/mL ([2]; Homo sapiens, Lymphocyte, 20 μg/mL, read-out: Isolated lymphocytes % growth inhibition): 76.3 ± 3.65%; IC50 ([2]; Homo sapiens, Lymphocyte): 6.66 ± 0.09 µg/mL (≈ 8.07 µM); inhibition at 20 µg/mL ([6]; Homo sapiens, THP-1, 20 μg/mL, read-out: THP-1 % growth inhibition): 100%
CCC[CH2][Sn]([CH2]CCC)([CH2]CCC)[O]C(=O)/C=C\C(=O)Nc1ccc(C(=O)OCC)cc1 [Ch-431, ethyl (Z)-4-(4-oxo-4-((tributylstannyl)oxy)but-2-enamido)benzoate] | 96.2 ± 2.23 | 5.48 ± 0.16 | 10.7 ± 1.17ǂ % | 26 ± 0.16 | 31 ± 0.78 | 0.049 ± 0.002 | 50.7 ± 1.25 | 51.5 ± 1.35 | 47.5 ± 0.99 | 53.2 ± 1.55 | 97.5 ± 2.75 | 0.078 ± 0.002 | 42.7 ± 1.13 | 10 ± 0.33 | ZOI BZ (bald zone) [3, 8]: 33 ± 1.15 mm
CCC[CH2][Sn]([CH2]CCC)([CH2]CCC)[O]C(=O)COc1ccc(OCC(=O)[O][Sn]([CH2]CCC)([CH2]CCC)[CH2]CCC)cc1 [Ch-409, bis(tributylstannyl) 2,2’-(1,4-phenylenebis(oxy))diacetate] | 99.5 ± 3.15 | 0.08 ± 0.001 | – | 30 ± 1.17 | 30 ± 1.75 | 0.781 ± 0.002 | – | – | – | – | 97.5 ± 1.98 | 0.954 ± 0.158 | 19.4 ± 1.41 | 12 ± 0.19 | Isolated lymphocytes IC50 [2]: 15.18 ± 0.75ǂ μg/mL; ZOI BZ (bald zone) [3, 8]: 31 ± 1.5 mm; Photosensitizing effect % growth inhibition, Control ([4]; 0.55 μg/mL): 52.05 ± 1.98%; Photosensitizing effect % growth inhibition, Dark ([4]; 0.55 μg/mL): 56.9 ± 0.02%; Photosensitizing effect % growth inhibition, Sunlight with IR filter ([4]; 0.55 μg/mL): 47.5 ± 1.56%; Photosensitizing effect % growth inhibition, Sunlight ([4]; 0.55 μg/mL): 57.63 ± 1.99%
COc1cccc2c1C(=O)c1c(O)c3c(c(O)c1C2=O)C[C@@](O)(C(=O)CO)C[C@@H]3O[C@H]1C[C@H](N)[C@H](O)[C@H](C)O1 [Doxorubicin, reference compound] | – | – | – | – | – | – | – | – | – | – | – | – | – | – | inhibition at 20 µg/mL ([1]; Homo sapiens, HepG2, 20 μg/mL, 72 h, read-out: HepG2 % growth inhibition): 97.2 ± 1.14%; IC50 ([1]; Homo sapiens, HepG2, 72 h, 3-fold dilutions): 5.36 ± 0.75 µg/mL (≈ 9.86 µM)
CC(C)CCCCCCCCC[C@@H]1CC(=O)N[C@@H](CCC(=O)O)C(=O)N[C@@H](CC(C)C)C(=O)N[C@H](CC(C)C)C(=O)N[C@@H](C(C)C)C(=O)N[C@@H](CC(=O)O)C(=O)N[C@H](CC(C)C)C(=O)N[C@@H](CC(C)C)C(=O)O1 [Surfactin, reference compound] (EL[dL]VD[dL]L; linker N-C via X1) | – | – | – | – | – | – | – | – | – | – | – | – | – | – | ZOI BZ (bald zone) ([3]; Surfactin positive control, printed 10 μg/mL): 23 ± 1.98 mm
CCC[CH2][Sn]([CH2]CCC)([CH2]CCC)[O]C(=O)/C=C\C(=O)Nc1ccccc1 [Ch-458, tributylstannyl (Z)-4-oxo-4-(phenylamino)but-2-enoate] | 98.7 ± 3.56 | 1.58 ± 0.07 | 14.8 ± 0.13ǂ % | 31 ± 1.37 | 30 ± 1.2 | 0.195 ± 0.001 | 35.2 ± 1.78 | 36.7 ± 0.74 | 30.25 ± 0.17 | 42.7 ± 1.35 | 97.8 ± 1.23 | 0.256 ± 0.064 | 21.2 ± 1.57 | 12 ± 1.25 | –
CCC[CH2][Sn]([CH2]CCC)([CH2]CCC)[O]C(=O)/C=C\C(=O)Nc1cccc(C)c1C [Ch-459, tributylstannyl (Z)-4-((2,3-dimethylphenyl)amino)-4-oxobut-2-enoate] | 96.5 ± 4.66 | 0.62 ± 0.005 | – | 30 ± 0.24 | 35 ± 0.99 | 0.391 ± 0.004 | 20.1 ± 0.59 | 22.7 ± 1.05 | 30.14 ± 1.47 | 25.5 ± 1.75 | 97.9 ± 3.99 | 0.323 ± 0.002 | – | – | Isolated lymphocytes IC50 [2]: 5.78 ± 0.34ǂ μg/mL
